Results on three molecules are retold here after publication PMC6270878, “Trigocherrierin A, a Potent Inhibitor of Chikungunya Virus Replication” (Molecules, 2014).

One series is described as follows: in vitro. The following applies: African green monkey.
For series [1], the system named is chikungunya virus (CHIKV). The series is described as follows: Chikungunya virus-cell based antiviral assay (inhibition of virus-induced cell death, MTS readout). The following applies: for EC50: Chikungunya virus, Vero, read-out: EC50 (50% effective concentration, inhibits CHIKV-induced cell death by 50%); for selectivity index (SI), CC50 Vero/EC50 CHIKV: ratio of CC50 to EC50.

In “in vitro”, `C=C(C)C12OC3(c4ccccc4)OC1C1C4OC4(CO)C(O)C4(O)C(O)C(C)=CC4C1(O3)C(C)C2OC(=O)C(C)CCCCCCCC` (centres unmarked) [Compound 1, Trigocherrierin A] gave a CC50 of 43 ± 16 µM. Further, in series [1], the EC50 was 0.6 ± 0.1 µM and the “selectivity index (SI), CC50 Vero/EC50 CHIKV” value amounted to 71.7.
In “in vitro”, `CCN(CC)CCCC(C)Nc1ccnc2cc(Cl)ccc12` (centres unmarked) [Chloroquine, chloroquine, reference compound] displayed a CC50 of 89 ± 28 µM. Besides, in series [1], the EC50 is 10 ± 5 µM.
In “in vitro”, `CC1CCCCCCC(C)C(=O)OC2C(=CCl)C=C3C2(O)C(O)C2(CO)OC2C2C4OC5(c6ccccc6)OC(C(C)C32O5)C4(O)C(O)(CO)C1` (centres unmarked) [Compound 2, Trigocherriolide E] displayed a CC50 of 6.6 ± 0.6 µM. Moreover, in series [1], the EC50 was found to be 0.7 ± 0.1 µM and the “selectivity index (SI), CC50 Vero/EC50 CHIKV” value was determined as 9.4.
